# From patent publication US10351594B2, “Process for preparing compounds having triple activities of thrombolysis, antithrombosis, and radical scavenging” (Shanghai Lumosa Therapeutics Co., Ltd., priority 2013, dated 2019)
# Read-outs that look alike come from different tables or passages of the source.
# Test system: stroke rats
# [1] = 2.5 μmol/kg 5Ak after 6 hours from stroke onset, 1st day
# [2] = 2.5 μmol/kg 5Ak after 6 hours from stroke onset, 2nd day
# [3] = 2.5 μmol/kg 5Ak after 6 hours from stroke onset, 3rd day
# [4] = 2.5 μmol/kg 5Ak after 6 hours from stroke onset, 4th day
# [5] = 2.5 μmol/kg 5Ak after 6 hours from stroke onset, 5th day
# [6] = 2.5 μmol/kg 5Ak after 6 hours from stroke onset, 6th day
# [7] = 2.5 μmol/kg 5Ak after 24 hours from stroke onset, 1st day
# [8] = 2.5 μmol/kg 5Ak after 24 hours from stroke onset, 2nd day
# [9] = 2.5 μmol/kg 5Ak after 24 hours from stroke onset, 3rd day
# [10] = 2.5 μmol/kg 5Ak after 24 hours from stroke onset, 4th day
# [11] = 2.5 μmol/kg 5Ak after 24 hours from stroke onset, 5th day
# [12] = 2.5 μmol/kg 5Ak after 24 hours from stroke onset, 6th day
# [13] = 5 μmol/kg 5Ak after 24 hours from stroke onset, 1st day
# [14] = 5 μmol/kg 5Ak after 24 hours from stroke onset, 2nd day
# [15] = 5 μmol/kg 5Ak after 24 hours from stroke onset, 3rd day
# [16] = 5 μmol/kg 5Ak after 24 hours from stroke onset, 4th day
# [17] = 5 μmol/kg 5Ak after 24 hours from stroke onset, 5th day
# [18] = 5 μmol/kg 5Ak after 24 hours from stroke onset, 6th day
# 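Also: male SD rats with thrombus-induced cerebral embolism via internal carotid artery, scored daily by Zealonga neurological deficit scale (0 no deficit to 5 death), lower score better.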
# Protocol: The therapeutic effect was evaluated by neurological functional scores. The lower the score was, the better the therapeutic effect was. A 10% chloral hydrate solution was injected intraperitoneally into male SD rats at a dosage of 400 mg/kg body weight for anesthesia. A longitudinal incision was made at the center of the neck, and the right common carotid artery trunk was separated (about 3 cm in length). External carotid artery branches were each separated and ligated at the hyoid level, and the internal carotid artery was separated from the swollen part of the neck. The incision of the internal carotid artery and the proximal end of the common carotid artery were clipped respectively with noninvasive arterial clips, and the distal end of the external carotid artery was ligated. A catheter containing 0.5 mL thrombus suspension in normal saline was inserted in the external carotid artery trunk. When the clip on the internal carotid artery was released, the 0.5 mL thrombus suspension in normal saline in the catheter slowly flew from the external carotid artery to its proximal end, and then was injected into the arteries in brain through the internal carotid artery. Subsequently, the proximal end of the internal carotid artery was ligated, the arterial clips on the internal carotid artery and the common carotid artery were released, and blood flow was restored. After the wound was stitched up, 20,000 IU penicillin was intramuscularly injected for prevention from infection. […] Self-comparison was performed each day, and the neurological deficit degree was evaluated by the Zealonga method. A score of 0 indicated no sign of loss in neural function, 1 indicated the front limbs on the undamaged side could not stretch out, 2 indicated walking toward the undamaged side, 3 indicated tail-chasing walking in circles toward the undamaged side, 4 indicated involuntary walking with disturbance of consciousness, and 5 indicated death.
compound,measurement,setting,value
"C[C@H](NC(=O)[C@@H]1CCCN1)C(=O)N[C@@H](CCCCN)C(=O)NCCCC[C@H](NC(=O)[C@@H]1Cc2cc(O)c(O)cc2C(C)(C)N1)C(=O)O [Compound 5Ak, 3S-6,7-dihydroxy-1,1-dimethyl-1,2,3,4-tetrahydro-isoquinoline-3-acyl-Lys(Pro-Ala-Lys)]","therapeutic effect, result in words",2.5 μmol/kg 5Ak after 6 hours from stroke onset,better therapeutic effect than 1 μmol/kg 5Ak
same,"Daily neural function scores, number of rats under 0 score",[1],1
same,"Daily neural function scores, number of rats under 1 score",[1],7
same,"Daily neural function scores, number of rats under 2 scores",[1],0
same,"Daily neural function scores, number of rats under 3 scores",[1],1
same,"Daily neural function scores, number of rats under 4 scores",[1],0
same,"Daily neural function scores, number of rats under 5 scores",[1],0
same,"Daily neural function scores, number of rats under 0 score",[2],3
same,"Daily neural function scores, number of rats under 1 score",[2],4
same,"Daily neural function scores, number of rats under 2 scores",[2],2
same,"Daily neural function scores, number of rats under 3 scores",[2],0
same,"Daily neural function scores, number of rats under 4 scores",[2],0
same,"Daily neural function scores, number of rats under 5 scores",[2],0
same,"Daily neural function scores, number of rats under 0 score",[3],6
same,"Daily neural function scores, number of rats under 1 score",[3],2
same,"Daily neural function scores, number of rats under 2 scores",[3],1
same,"Daily neural function scores, number of rats under 3 scores",[3],0
same,"Daily neural function scores, number of rats under 4 scores",[3],0
same,"Daily neural function scores, number of rats under 5 scores",[3],0
same,"Daily neural function scores, number of rats under 0 score",[4],6
same,"Daily neural function scores, number of rats under 1 score",[4],3
same,"Daily neural function scores, number of rats under 2 scores",[4],0
same,"Daily neural function scores, number of rats under 3 scores",[4],0
same,"Daily neural function scores, number of rats under 4 scores",[4],0
same,"Daily neural function scores, number of rats under 5 scores",[4],0
same,"Daily neural function scores, number of rats under 0 score",[5],5
same,"Daily neural function scores, number of rats under 1 score",[5],4
same,"Daily neural function scores, number of rats under 2 scores",[5],0
same,"Daily neural function scores, number of rats under 3 scores",[5],0
same,"Daily neural function scores, number of rats under 4 scores",[5],0
same,"Daily neural function scores, number of rats under 5 scores",[5],0
same,"Daily neural function scores, number of rats under 0 score",[6],7
same,"Daily neural function scores, number of rats under 1 score",[6],2
same,"Daily neural function scores, number of rats under 2 scores",[6],0
same,"Daily neural function scores, number of rats under 3 scores",[6],0
same,"Daily neural function scores, number of rats under 4 scores",[6],0
same,"Daily neural function scores, number of rats under 5 scores",[6],0
same,"therapeutic effect, result in words",2.5 μmol/kg 5Ak after 24 hours from stroke onset,certain therapeutic effect
same,"Daily neural function scores, number of rats under 0 score",[7],1
same,"Daily neural function scores, number of rats under 1 score",[7],4
same,"Daily neural function scores, number of rats under 2 scores",[7],1
same,"Daily neural function scores, number of rats under 3 scores",[7],0
same,"Daily neural function scores, number of rats under 4 scores",[7],1
same,"Daily neural function scores, number of rats under 5 scores",[7],0
same,"Daily neural function scores, number of rats under 0 score",[8],3
same,"Daily neural function scores, number of rats under 1 score",[8],2
same,"Daily neural function scores, number of rats under 2 scores",[8],1
same,"Daily neural function scores, number of rats under 3 scores",[8],1
same,"Daily neural function scores, number of rats under 4 scores",[8],0
same,"Daily neural function scores, number of rats under 5 scores",[8],0
same,"Daily neural function scores, number of rats under 0 score",[9],3
same,"Daily neural function scores, number of rats under 1 score",[9],2
same,"Daily neural function scores, number of rats under 2 scores",[9],1
same,"Daily neural function scores, number of rats under 3 scores",[9],0
same,"Daily neural function scores, number of rats under 4 scores",[9],0
same,"Daily neural function scores, number of rats under 5 scores",[9],1
same,"Daily neural function scores, number of rats under 0 score",[10],2
same,"Daily neural function scores, number of rats under 1 score",[10],2
same,"Daily neural function scores, number of rats under 2 scores",[10],1
same,"Daily neural function scores, number of rats under 3 scores",[10],1
same,"Daily neural function scores, number of rats under 4 scores",[10],0
same,"Daily neural function scores, number of rats under 5 scores",[10],0
same,"Daily neural function scores, number of rats under 0 score",[11],4
same,"Daily neural function scores, number of rats under 1 score",[11],0
same,"Daily neural function scores, number of rats under 2 scores",[11],1
same,"Daily neural function scores, number of rats under 3 scores",[11],0
same,"Daily neural function scores, number of rats under 4 scores",[11],0
same,"Daily neural function scores, number of rats under 5 scores",[11],1
same,"Daily neural function scores, number of rats under 0 score",[12],3
same,"Daily neural function scores, number of rats under 1 score",[12],1
same,"Daily neural function scores, number of rats under 2 scores",[12],1
same,"Daily neural function scores, number of rats under 3 scores",[12],0
same,"Daily neural function scores, number of rats under 4 scores",[12],0
same,"Daily neural function scores, number of rats under 5 scores",[12],0
same,rats that died during successive 6-day treatment,"2.5 μmol/kg 5Ak once per day after 6 hours from stroke onset, nine rats",no death occurred
same,rats that died during successive 6-day treatment,"2.5 μmol/kg 5Ak once per day after 24 hours from stroke onset, seven rats",two
same,"therapeutic effect, result in words",5 μmol/kg 5Ak after 24 hours from stroke onset,definite therapeutic effect
same,"Daily neural function scores, number of rats under 0 score",[13],0
same,"Daily neural function scores, number of rats under 1 score",[13],5
same,"Daily neural function scores, number of rats under 2 scores",[13],4
same,"Daily neural function scores, number of rats under 3 scores",[13],0
same,"Daily neural function scores, number of rats under 4 scores",[13],1
same,"Daily neural function scores, number of rats under 5 scores",[13],0
same,"Daily neural function scores, number of rats under 0 score",[14],2
same,"Daily neural function scores, number of rats under 1 score",[14],6
same,"Daily neural function scores, number of rats under 2 scores",[14],2
same,"Daily neural function scores, number of rats under 3 scores",[14],0
same,"Daily neural function scores, number of rats under 4 scores",[14],0
same,"Daily neural function scores, number of rats under 5 scores",[14],0
same,"Daily neural function scores, number of rats under 0 score",[15],2
same,"Daily neural function scores, number of rats under 1 score",[15],6
same,"Daily neural function scores, number of rats under 2 scores",[15],2
same,"Daily neural function scores, number of rats under 3 scores",[15],0
same,"Daily neural function scores, number of rats under 4 scores",[15],0
same,"Daily neural function scores, number of rats under 5 scores",[15],0
same,"Daily neural function scores, number of rats under 0 score",[16],5
same,"Daily neural function scores, number of rats under 1 score",[16],5
same,"Daily neural function scores, number of rats under 2 scores",[16],0
same,"Daily neural function scores, number of rats under 3 scores",[16],0
same,"Daily neural function scores, number of rats under 4 scores",[16],0
same,"Daily neural function scores, number of rats under 5 scores",[16],0
same,"Daily neural function scores, number of rats under 0 score",[17],6
same,"Daily neural function scores, number of rats under 1 score",[17],4
same,"Daily neural function scores, number of rats under 2 scores",[17],0
same,"Daily neural function scores, number of rats under 3 scores",[17],0
same,"Daily neural function scores, number of rats under 4 scores",[17],0
same,"Daily neural function scores, number of rats under 5 scores",[17],0
same,"Daily neural function scores, number of rats under 0 score",[18],7
same,"Daily neural function scores, number of rats under 1 score",[18],3
same,"Daily neural function scores, number of rats under 2 scores",[18],0
same,"Daily neural function scores, number of rats under 3 scores",[18],0
same,"Daily neural function scores, number of rats under 4 scores",[18],0
same,"Daily neural function scores, number of rats under 5 scores",[18],0
same,rats that died during successive 6-day treatment,"5 μmol/kg 5Ak once per day after 24 hours from stroke onset, ten rats",no death occurred
